What was measured:
[1] = molecular target: T1, RIPK1 (receptor-interacting serine/threonine-protein kinase 1) (Homo sapiens (Human), UniProt Q13546); assay: RIPK1 inhibitory activity, autophosphorylation of immuno-precipitated RIPK1 with [32P]γ-ATP; assay type: biochemical; conditions: for activity at 100 µM: compound 100 μM, remaining RIPK1 phosphorylation; for inhibition at 100 µM: Table 2, 100 μM
Protocol: The following experiment was performed to evaluate RIPK1 (receptor-interacting serine/threonine-protein kinase 1) inhibitory activity of the compounds of examples of the invention.
(§1) RIPK1 enzyme immuno-precipitated in HEK293 (Human Embryonic Kidney 293) cell lysate was used as kinase. The experiment was performed according to the method described in Cell. 12; 137(6):1112-23(2009). RIPK1 protein was over-expressed in HEK293 cell line, to which lysis buffer (50 mM Tris-Cl [pH 8.0], 150 mM NaCl, 1 mM EDTA, 1% NP-40, 0.4 mM phenylmethylsulfonyl fluoride (PMSF)) was added for cell lysis. Centrifugation was performed at 13,000 rpm for 10 minutes to separate the supernatant. RIPK1 monoclonal antibody (610459, BD Bioscience) and A/G agarose beads (sc-2003, Santa Cruz Biotechnology) were added thereto, followed by immuno-precipitation in a 4° C. rotator for 12 hours.
The immune complex was washed with lysis buffer twice and then washed with kinase assay buffer (20 mM HEPES [pH7.6], 2 mM DTT, 1 mM NaF, 1 mM Na3Vo4, 20 mM β-glycerophosphate, 20 mM PNPP, 20 mM MgCl2, 20 mM MnCl2, 1 mM Benzamidie, and 1 mM EDTA) lastly. Kinase assay buffer and the compound were added to the RIPK1 immuno-precipitate, followed by reaction in a 24° C. constant-temperature water bath for 15 minutes. Additional reaction was induced for 30 minutes at 30° C. after 100 μM of ATP and 10 μCi[^32P] γ-ATP were added thereto. The reaction mixture was washed with kinase assay buffer once, to which protein loading buffer was added, followed by heating at 100° C. for 3 minutes. The reaction mixture was then loaded on 8% SDS-PAGE gel. Radioactive image of the phosphorylated RIPK1 was detected with FLA-7000 (GE healthcare). The image Quant TL program was used for the quantification.

[2] = system: RGC-5 (rat ganglion cell); assay: Retinal nerve protection under oxygen-glucose deprivation (OGD), LDH assay; assay type: cell-based; conditions: RGC-5, OGD 15 hours, compound 20 μM, DMSO control = 100%
Protocol: The following experiment was performed to evaluate the protective effect of the compounds of examples of the invention on the retinal nerve under oxygen-glucose deprivation condition.
The retinal ganglion cell line RGC-5 (rat ganglion cell) was cultured in DMEM (Dulbecco's modified Eagle's medium) supplemented with 10% FBS (fetal bovine serum) and 1% penicillin/streptomycin. The cells were distributed in a 96-well plate at the density of 8×10^3 cells/well, followed by culture in a 37° C., CO2 incubator for 12 hours. The cells were washed with PBS once and the medium was replaced with glucose free DMEM. The cells were treated with either DMSO (0.1%) alone (control) or with the compounds of examples (20 μM) shown in Table 3, followed by culture in an anaerobic incubator (10% H2, 5% CO2, 85% N2, 37° C., chamber (ThermoForma, USA)) for 15 hours to induce cell death.
The level of cell death was measured by LDH (lactate dehydrogenase, Roche) assay. The LDH assay is a method for measuring the activity of LDH released from the damaged cells into the culture medium. NAD^+ was reduced to NADH and H^+ by LDH, and the bond of tetrazolium salt INT ring was cleaved by diaphorase to form formazan. Absorbance of the formazan was measured at 490 nm by using Victor 3 (PerkinElmer). The absorbance reflects the amount of dead cells.
The level of the control LDH under oxygen-glucose deprivation condition was regarded as 100%, and the level of LDH in the cell group cultured in normal medium (10% FBS, DMEM) for the same time was regarded as 0%. Based on that, the levels of LDH of the cell groups treated with the compounds of the invention under oxygen-glucose deprivation condition were converted into the relative ratio of cell death. The compounds of examples of the invention were treated to wells, each compound for three wells, and then each experiment was performed in triplicate.

[3] = molecular target: T1, RIPK1 (receptor-interacting serine/threonine-protein kinase 1); assay: IC50 to RIPK1, immuno-precipitated enzyme with [32P]γ-ATP; assay type: biochemical; conditions: 10-0.05 μM, 100 μM ATP
Protocol: RIPK1 enzyme immuno-precipitated in HEK293 (Human Embryonic Kidney 293) cell lysate was used as a kinase. The experiment was performed according to the method described in Cell. 12; 137(6):1112-23(2009).
as §1, with “RIPK1” for “RIPK1 enzyme immuno-precipitated in HEK293 (Human Embryonic Kidney 293) cell lysate was used as kinase. The experiment was performed according to the method described in Cell. 12; 137(6):1112-23(2009). RIPK1”
The compounds of examples of the invention were diluted at the different concentrations of 10 μM˜0.05 μM (10, 5, 1, 0.5, 0.1, 0.05 uM) and mixed with the immuno-precipitated RIPK1 enzyme, followed by reaction in a 24° C. constant-temperature water bath for 15 minutes. Additional reaction was induced for 30 minutes at 30° C. after 100 μM of ATP and 10 μCi[^32P] γ-ATP were added thereto. The reaction mixture was washed with buffer once, to which protein loading buffer was added, followed by heating at 100° C. for 3 minutes. The reaction mixture was then loaded on 8% SDS-PAGE gel. Radioactive image of the phosphorylated RIPK1 was detected with FLA-7000 (GE healthcare). The image Quant TL program was used for the quantification. Based on the results, IC50 of the compound was calculated by using sigmaplot 10.0 program.

[4] = system: RGC-5 (rat ganglion cell-5); assay: Retinal neuron protection under necroptosis inducing (TCZ; TNFα+cycloheximide+zVAD) condition, LDH assay; assay type: cell-based; conditions: RGC-5, TCZ 15 hours, compound 20 μM, DMSO control = 100%
Protocol: The following experiment was performed to evaluate the retinal neuron protection effect of the compounds of the invention under necroptosis inducing condition.
The retinal ganglion cell line RGC-5 (rat ganglion cell-5) was cultured in DMEM (Dulbecco's modified Eagle's medium) supplemented with 10% FBS (fetal bovine serum) and 1% penicillin/streptomycin. The cells were distributed in a 96-well plate at the density of 8×10^3 cells/well, followed by culture in a 37° C., CO2 incubator for 12 hours. The medium supplemented with TNFα (10 ng/ml), cycloheximide (10 μg/ml), and zVAD (10 μM) (TCZ) was treated with DMSO (0.1%) alone (control) or with the compounds of the invention (20 μM), followed by additional culture in a 37° C., CO2 incubator for 15 hours to induce cell death.
The level of cell death was measured by LDH (lactate dehydrogenase, Roche) assay. The level of the control LDH under TCZ condition was regarded as 100%, and the level of LDH in the cell group cultured in normal medium (10% FBS, DMEM) for the same time was used for the measurement of the relative rate of cell death. The compounds of examples of the invention were treated to wells, each compound for three wells, and then each experiment was performed in triplicate.

T1 sequence (Q13546 whole entry, species assumed): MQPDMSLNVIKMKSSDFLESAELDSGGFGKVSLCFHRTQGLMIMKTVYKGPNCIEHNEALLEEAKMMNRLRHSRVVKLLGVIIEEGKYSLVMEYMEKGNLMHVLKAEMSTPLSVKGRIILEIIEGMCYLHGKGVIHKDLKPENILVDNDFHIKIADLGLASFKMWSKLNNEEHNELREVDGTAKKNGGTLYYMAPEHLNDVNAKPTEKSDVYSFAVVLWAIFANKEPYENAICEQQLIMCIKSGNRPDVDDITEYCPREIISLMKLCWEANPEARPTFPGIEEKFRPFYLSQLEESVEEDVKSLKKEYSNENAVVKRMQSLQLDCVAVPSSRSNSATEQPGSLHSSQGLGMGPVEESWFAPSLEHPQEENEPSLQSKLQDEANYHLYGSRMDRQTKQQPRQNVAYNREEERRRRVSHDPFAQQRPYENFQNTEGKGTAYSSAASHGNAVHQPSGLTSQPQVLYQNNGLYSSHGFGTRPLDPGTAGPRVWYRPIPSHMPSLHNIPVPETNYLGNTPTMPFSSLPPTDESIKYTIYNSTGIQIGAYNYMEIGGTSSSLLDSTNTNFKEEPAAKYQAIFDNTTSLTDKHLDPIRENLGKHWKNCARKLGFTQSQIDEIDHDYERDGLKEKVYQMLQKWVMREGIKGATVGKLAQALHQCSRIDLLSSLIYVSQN

| SMILES | activity at 100 µM [1] | IC50 [3] | inhibition at 100 µM [1] | Death of retinal nerve cell (%) [2] | Death of retinal nerve cell (%) [4] |
| --- | --- | --- | --- | --- | --- |
| COc1ccc2[nH]c(C(=O)N3CCOCC3)cc2c1 [Example 22, (5-methoxy-1H-indole-2-yl)(morpholino)methanone] | 43.5 ± 10.6% | – | ≥ 50% | 78.6 ± 13.8% | 69.5 ± 7.4% |
| O=C(c1cc2ccccc2o1)N1CCOCC1 [Example 15, benzofuran-2-yl(morpholino)methanone] | 85.6 ± 26.7% | – | – | 42.7 ± 2.0% | 72.6 ± 6.8% |
| O=C(c1nc2ccccc2[nH]1)N1CCOCC1 [Example 23, (1H-benzo[d]imidazole-2-yl)(morpholino)methanone] | 69 ± 24.5% | – | – | 45.6 ± 3.6% | 69.2 ± 4.2% |
| O=C(c1cc2cc(Br)ccc2o1)N1CCOCC1 [Example 16, (5-bromobenzofuran-2-yl)(morpholino)methanone] | 88 ± 24.7% | – | – | 19.3 ± 1.4% | 59.4 ± 11.3% |
| COc1ccc2oc(C(=O)N3CCOCC3)cc2c1 [Example 26, (5-methoxybenzofuran-2-yl)(morpholino)methanone] | 81.4 ± 29.3% | – | – | 48.6 ± 6.5% | 75.9 ± 15.1% |
| Nc1ccc2sc(C(=O)N3CCOCC3)cc2c1 [Example 28, (5-aminobenzo[b]thiophene-2-yl)(morpholino)methanone] | 73 ± 38.2% | – | – | 60.0 ± 8.2% | 84.3 ± 1.7% |
| Cc1ccc2cc(C(=O)N3CCOCC3)oc2c1 [Example 27, (6-methylbenzofuran-2-yl)(morpholino)methanone] | 86 ± 17% | – | – | 53.7 ± 9.1% | 86.1 ± 1.3% |
| Cn1c(C(=O)N2CCOCC2)cc2ccccc21 [Example 25, (1-methyl-1H-indole-2-yl)(morpholino)methanone] | 43% | – | ≥ 50% | 37.0 ± 1.2% | 64.8 ± 11.2% |
| COc1ccc2cc(C(=O)N3CCOCC3)sc2c1 [Example 19, (6-methoxybenzo[b]thiophene-2-yl)(morpholino)methanone] | 81 ± 26.9% | – | – | 70.9 ± 9.7% | 71.6 ± 9.1% |
| Fc1ccc(-c2cccc3sc(CN4CCOCC4)cc23)cc1 [Example 7, 4-((4-(4-fluorophenyl)benzo[b]thiophene-2-yl)methyl)morpholine] | 87.1 ± 17.7% | – | – | 90.0 ± 3.3% | 63.2 ± 3.9% |
| O=C(c1nc2cc(Br)ccc2[nH]1)N1CCOCC1 [Example 14, (5-bromo-1H-benzo[d]imidazole-2-yl)(morpholino)methanone] | 62 ± 6.2% | – | – | 82.1 ± 11.2% | 81.1 ± 15.2% |

Second part, led by results:

| activity at 100 µM [1] | IC50 [3] | inhibition at 100 µM [1] | SMILES | Death of retinal nerve cell (%) [2] | Death of retinal nerve cell (%) [4] |
| --- | --- | --- | --- | --- | --- |
| 1.5 ± 0.7% | 230 nM | – | O=C(c1cc2c(-c3ccc(F)cc3F)cccc2s1)N1CCOCC1 [Example 63, (4-(2,4-difluorophenyl)benzo[b]thiophene-2-yl)(morpholino)methanone] | 48.3 ± 13.7% | – |
| 4 ± 2.8% | 17.7 nM | – | O=C(c1cc2c(-c3cccc(F)c3)cccc2s1)N1CCOCC1 [Example 36, (4-(3-fluorophenyl)benzo[b]thiophene-2-yl)(morpholino)methanone] | 58.0 ± 3.8% | – |
| 0.4 ± 0.1% | 102 nM | – | O=C(c1cc2c(-c3ccccc3F)cccc2s1)N1CCOCC1 [Example 30, (4-(2-fluorophenyl)benzo[b]thiophene-2-yl)(morpholino)methanone] | 51.0 ± 5.9% | – |
| 4% | 65.6 nM | – | O=C(c1cc2c(-c3cccs3)cccc2s1)N1CCOCC1 [Example 74, morpholino(4-(thiophene-2-yl)benzo[b]thiophene-2-yl)methanone] | 51.4 ± 10.3% | – |
| 3.5 ± 3.5% | 73.4 nM | – | O=C(c1cc2c(-c3ccoc3)cccc2s1)N1CCOCC1 [Example 75, (4-(furan-3-yl)benzo[b]thiophene-2-yl)(morpholino)methanone] | 41.7 ± 7.0% | – |
| 20 ± 14.1% | – | – | O=C(c1cc2c(-c3ccc(F)cc3)cccc2s1)N1CCCCC1 [Example 47, (4-(4-fluorophenyl)benzo[b]thiophene-2-yl) (piperidine-1-yl)methanone] | 59.1 ± 1.6% | 89.1 ± 1.2% |
| 62 ± 12% | – | – | Cl.O=C(c1cc2c(-c3ccc(F)cc3)cccc2s1)N1CCNCC1 [Example 38, (4-(4-fluorophenyl)benzo[b]thiophene-2-yl)(piperazine-1-yl)methanone hydrochloride] | 59.9 ± 0.2% | 72.4 ± 7.5% |
| 1.5 ± 0.7% | 61.2 nM | – | O=C(c1cc2c(-c3ccsc3)cccc2s1)N1CCOCC1 [Example 76, morpholino(4-(thiophene-3-yl)benzo[b]thiophene-2-yl)methanone] | – | – |

From patent US10501473B2, “Fused heterocyclic ring compounds and method of treating retinal disease using same” (THE INDUSTRY & ACADEMIC COOPERATION IN CHUNGNAM NATIONAL …, priority 2014, dated 2019)
